Laboratory results taken from patent US6448256B1, “Antibiotic prodrugs” (University of Massachusetts, priority 1999, dated 2002).
pKi: −log10 of the molar value. Values after ≈ are worked out from the molar mass of the structure shown. Values joined by “and” are separate entries in the source; they are usually repeats but may differ in a detail not shown here. Equal entries are not always repeated. Where two headings read alike, the source gives them in different places.

Assays:
B. subtilis DNA pol III = B. subtilis DNA pol III (Bacillus subtilis, UniProt P13267); assay: Inhibition of B. subtilis DNA pol III (Ki); type: biochemical
Procedure: (§1) To further investigate the antibacterial and/or DNA pol III inhibitory activity of various drug compounds, various ester-containing moieties N-linked to the EMAU core were produced as described in Example 1. These prodrugs were assayed for inhibition of B. subtilis DNA pol III and antibiotic activity against a number of bacteria.
The competitive inhibitor constants (Ki) of selected EMAU compounds were determined with three different pol Ills: the pol III enzyme from Bacillus subtilis (BS pol III), and the pol III enzymes of the clinically relevant pathogens, Enterococcus fecalis (EF pol III) and Staphylococcus aureus (SA pol 111).

B. subtilis = assay: MIC against B. subtilis; type: cell-based; conditions: Bacillus subtilis, Table 6; read-out: MIC B. subtilis
Procedure: as §1
(§2) The minimal inhibitory concentrations (MICs) of the four N3-substituted agents and EMAU were determined for B. subtilis (BS), methicillin-sensitive and resistant S. aureus (SA & MRSA), vancomycin-sensitive and resistant E. fecalis (EF& VREF), vancomycin-resistant E. fecium (VREF*), and E. coli (EC) as a Gram-negative control.

S. aureus [1] = assay: MIC against S. aureus (methicillin-sensitive); type: cell-based; conditions: Staphylococcus aureus, read-out: MIC S. aureas
Procedure: as §1, §2

E. fecalis = assay: MIC against E. fecalis; type: cell-based; conditions: Table 6; read-out: MIC E. fecalis
Procedure: as §1, §2

Solubility in water = type: physicochemical; conditions: 25° C.
Excerpt: The prodrug 3-(L-valylbutyl)-EMAU (Val-B-EMAU, 4a) was synthesized as a hydrochloride. The structure was confirmed by NMR. The compound had high solubility in water. […] Two different synthesis methods were used.

[2] = Prodrug conversion in mouse plasma in vitro (HPLC); type: in vitro ADME; conditions: mouse
Procedure: The conversion rate of prodrugs can be measured by first establishing a reverse phase HPLC method for the detection of both prodrug and drug in a biological sample such as plasma or serum. A stock solution of prodrug, usually in saline, is diluted 1:5 in animal plasma or saline. […] If necessary, the sample can be thawed in a 37° C. water bath. Aliquots of the diluted sample are taken at 15, 30, 45, 60, 90, 120, and 180 minutes. Longer time points are usually needed for saline solutions because the rates of spontaneous hydrolysis are much longer than for enzyme-catalyzed hydrolysis. The aliquots are analyzed at a 1:10 dilution using HPLC, and the fraction of prodrug which has been converted at each time point calculated.
The rate of formation of the drug and the rate of decay of the prodrug had doubling and half-life times, respectively, of about 30 minutes. In contrast, the estimated half-life of Val-B-EMAU in physiological saline at 37° C. was greater then 5000 hours. The mechanism for the decomposition of Val-B-EMAU by plasma is presumed to involve esterases in the circulation.
To further define the conversion rate of Val-B-EMAU (4a), the prodrug was incubated in 80% mouse plasma.

[3] = Plasma pharmacokinetics after intravenous administration to mice; type: in vivo; conditions: for half-life: mouse, plasma, iv, 25 mg/kg
Procedure: (d) Elimination halfife and apparent volume of distribution. An appropriate dose of each agent (the maximum permitted by the results of the above dose/toxicity studies) is injected via the tail vein to a series of mice (e.g., 12). At specific times following injection (e.g., 10, 20, 30, 45, 90, and 150 minutes), mice (e.g., a pair) are restrained in DecapiCones and decapitated, and their blood collected individually by exsanguination into a sterile test tube.
The blood samples are centrifuged to yield clear plasma (yield: 0.4-0.6 ml per mouse). Approximately 0.2 ml of the plasma sample are used for HPLC analysis, using conditions established herein for quantitation of the compound. The individual plasma levels for each time point are averaged, and the data are analyzed to estimate Vd and half-life by established methods (Gibaldi, M. and D. Perrier. Pharmacokinetics. Marcel Dekker, Inc., New York, 1975).
Solutions of Val-B-EMAU in saline were next injected into the tail veins of mice at a dose of 25 mg/kg body weight. Animals were sacrificed at various times after dosing, and plasma was isolated and subjected to HPLC analysis.
Each value plotted in FIG. 3 represents the average of four measurements, each in a different animal.

[4] = Plasma pharmacokinetics after oral administration to mice; type: in vivo
Procedure: (e) Uptake from subcutaneous (sc), intraperitoneal (ip), and oral (Po) routes, Oral dosing can be performed by gavage with a small stomach tube to DecapiCone-restrained animals. […] At specific times following administration (e.g., 15, 30, 60, 90, 150 and 240 minutes), two mice are sacrificed and their plasma samples prepared and analyzed by HPLC as described above in (d). Following decapitation, the site of drug application in each animal's carcass is dissected and inspected visually for evidence of precipitation.
Each value plotted in FIG. 4 is an average of two measurement, each in a different animal.

[5] = system: S. aureus (methicillin-sensitive Smith strain); assay: ip/ip mouse protection against lethal S. aureus infection; type: in vivo, mice; parameters: mice protected from death: dose or concentration left out as unconfirmed
Procedure: Step 1: Screening—Each candidate prodrug is screened for activity in an ip/ip S. aureus protection model. Candidates that display efficacy equivalent to that of HB-EMAU and HB-IMAU are selected for advanced pharmacokinetic analysis and application in the more relevant mouse thigh model of infection.
The efficacy of the propyl derivatives was tested against murine staphylococcal infection in vivo. A simple “ip/ip” system was used, in which 20 gram mice (10 each) were injected ip (intraperitoneally) with a lethal dose (2.3×10^7 CFU) of the methicillin-sensitive Smith strain of S. aureus. The mice were then immediately injected ip with the antibiotic agent as a 1:9 mixture of DMSO:peanut oil. Vancomycin was used as the positive control drug.
Both hydroxybutyl compounds were tested at 10 mg/kg in the mouse protection experiment against lethal S. aureus infection described in Example 4 above.

S. aureus [6] = assay: Bactericidal activity (killing) against S. aureus; type: cell-based; conditions: 2, 4, and 8× MIC, killing continued for 24 hours
S. aureus [7] = assay: Mouse thigh infection model; type: in vivo, mice; conditions: ip in saline, 40 mg/kg every four hours
Excerpt: The mouse thigh infection model has been pioneered and used by Craig and colleagues (Craig, W. A., Redington, J. and S. C. Ebert (1991) J. Antimicr. Chemother. 27:Suppl C, 29-40; Leggett, J. E., Ebert, S., Fantin, B. and W. A. Craig (1991) Scand. J. Inf. Dis. 74:179-184). It represents a rational, flexible, cost-effective, and reproducible experimental approach for predicting the efficacy of a bacterial infection in a human patient. It is particularly useful in the present invention, because it is adaptable to the use of clinically relevant strains of Staphylococcus and Enterococcus.
Mice are made neutropenic to render them susceptible to infection with a wide variety of bacteria. […] The infected thigh of each animal is homogenized in sterile saline, and the bacterial concentration in the homogenate is determined by dilution and plating. […]
Testing can be carried out as follows. […] Treatment with the test agent and the positive control agent (vancomycin) is initiated at 2 hours post-infection, using a route (Po, ip, or sc), schedule, and dosing regimen determined by the agent's in vitro potency and specific pharmacokinetic properties.
The compounds are given by ip injection of 0.05 ml of a saline solution. […] Results are expressed as the log reduction in bacterial growth as a fraction of that in vehicle-treated animals.

Chain of B. subtilis DNA pol III (P13267 whole entry): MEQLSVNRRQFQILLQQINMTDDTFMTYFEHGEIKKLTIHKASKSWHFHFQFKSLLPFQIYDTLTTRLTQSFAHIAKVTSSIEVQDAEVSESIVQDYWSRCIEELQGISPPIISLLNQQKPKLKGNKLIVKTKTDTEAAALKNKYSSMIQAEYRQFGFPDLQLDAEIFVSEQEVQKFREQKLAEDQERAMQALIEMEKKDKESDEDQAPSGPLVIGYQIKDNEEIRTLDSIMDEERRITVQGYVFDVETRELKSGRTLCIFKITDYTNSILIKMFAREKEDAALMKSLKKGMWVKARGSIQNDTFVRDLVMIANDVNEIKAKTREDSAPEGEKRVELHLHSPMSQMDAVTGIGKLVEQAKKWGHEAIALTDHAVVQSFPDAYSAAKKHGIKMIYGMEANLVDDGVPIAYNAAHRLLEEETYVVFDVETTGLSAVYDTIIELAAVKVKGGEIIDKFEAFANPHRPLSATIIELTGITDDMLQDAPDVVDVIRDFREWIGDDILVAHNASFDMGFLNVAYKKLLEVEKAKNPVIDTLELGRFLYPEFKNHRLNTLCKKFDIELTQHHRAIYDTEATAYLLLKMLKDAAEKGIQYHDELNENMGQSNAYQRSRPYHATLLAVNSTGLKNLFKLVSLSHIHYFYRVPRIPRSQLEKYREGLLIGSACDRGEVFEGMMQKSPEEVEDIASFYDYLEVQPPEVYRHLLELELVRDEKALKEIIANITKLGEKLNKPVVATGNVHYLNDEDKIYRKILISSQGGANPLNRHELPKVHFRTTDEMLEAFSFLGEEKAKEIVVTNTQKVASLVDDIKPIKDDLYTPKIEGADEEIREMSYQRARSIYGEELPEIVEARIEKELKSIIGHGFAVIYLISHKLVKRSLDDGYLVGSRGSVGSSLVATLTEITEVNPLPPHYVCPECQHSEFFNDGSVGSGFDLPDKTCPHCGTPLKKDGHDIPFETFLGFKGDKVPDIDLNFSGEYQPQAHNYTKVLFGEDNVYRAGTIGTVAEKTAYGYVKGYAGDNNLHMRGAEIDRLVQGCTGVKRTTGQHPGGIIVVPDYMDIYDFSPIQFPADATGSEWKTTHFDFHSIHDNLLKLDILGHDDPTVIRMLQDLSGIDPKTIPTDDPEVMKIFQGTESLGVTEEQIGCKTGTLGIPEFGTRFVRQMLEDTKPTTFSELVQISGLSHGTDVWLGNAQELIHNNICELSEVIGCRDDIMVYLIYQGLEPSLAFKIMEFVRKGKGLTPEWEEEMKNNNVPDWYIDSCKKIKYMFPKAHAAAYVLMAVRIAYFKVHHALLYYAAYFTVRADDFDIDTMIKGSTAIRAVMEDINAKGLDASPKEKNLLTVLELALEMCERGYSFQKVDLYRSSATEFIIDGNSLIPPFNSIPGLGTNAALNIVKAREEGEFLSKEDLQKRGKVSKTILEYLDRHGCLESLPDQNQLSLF

CCc1cc(Nc2cc(=O)n(CCCCO)c(=O)[nH]2)ccc1C [HB-EMAU]
pKi (B. subtilis DNA pol III; Table 1, read-out: Ki B. subtilis pol III): 6.72
pKi (B. subtilis DNA pol III; Table 6, read-out: Ki, inhibition constant vs. B. subtilis DNA pol III): 6.74
MIC (B. subtilis): < 3.1 µg/mL
MIC (S. aureus [1]): 6 µg/mL (≈ 18.9 µM)
MIC (E. fecalis): 6 µg/mL (≈ 18.9 µM)
solubility (Solubility in water): ~30 µg/mL (≈ 94.5 µM)
doubling time of formation of the drug [2]: about 30 minutes
time at which HB-EMAU concentration peaked ([3]; after iv Val-B-EMAU 25 mg/kg (FIG. 1)): about 20 minutes
half-life ([3]; after iv Val-B-EMAU 25 mg/kg (FIG. 1), read-out: half life of HB-EMAU): ~43 min
half-life ([3]; after iv Val-B-EMAU (4a) 25 mg/Kg (FIG. 3), average of four measurements, read-out: elimination half-life of HB-EMAU): 15.6 min
area under the curve for HB-EMAU, estimated ([4]; HB-EMAU administered directly): 0.1%
peak concentration of HB-EMAU ([4]; mice, after oral VB-EMAU 100 mg/Kg): 11.2 μM and 3.5 μg/ml
plasma HB-EMAU at four hours after administration ([4]; mice, after oral Val-B-EMAU (4a) 100 mg/Kg): no detectable
time at which plasma level of HB-EMAU peaked ([4]; mice, after oral Val-B-EMAU (4a) 100 mg/Kg in physiological saline (FIG. 4)): 60 min
animals protected from death ([5]; 10 mg/kg, four day experiment, ten animals): all ten animals
bactericidal for S. aureus (S. aureus [6]): bactericidal

CN[C@H](CC(C)C)C(=O)N[C@H]1C(=O)N[C@@H](CC(N)=O)C(=O)N[C@H]2C(=O)N[C@H]3C(=O)N[C@H](C(=O)N[C@H](C(=O)O)c4cc(O)cc(O)c4-c4cc3ccc4O)[C@H](O)c3ccc(c(Cl)c3)Oc3cc2cc(c3O[C@@H]2O[C@H](CO)[C@@H](O)[C@H](O)[C@H]2O[C@H]2C[C@](C)(N)[C@H](O)[C@H](C)O2)Oc2ccc(cc2Cl)[C@H]1O [vancomycin, reference compound]
protection of mice ([5]; 20 mg/kg, positive control): protected all mice
mice protected from death ([5]; control drug, four day experiment): all ten mice
log reduction in S. aureus proliferation compared with control thighs (S. aureus [7]): 2-4 log
